Publication PMC3069055, “Structural Asymmetry of Phosphodiesterase-9, Potential Protonation of a Glutamic Acid, and Role of the Invariant Glutamine” (PLoS ONE, 2011)
Several values for one entry are separate records, joined by “and”; a condition that tells them apart may be missing. Identical values can stand only once. Like-named read-outs stand apart in the source and are kept apart here.

Assays:
PDE9A2 E406A mutant [1] = target: T1, PDE9A2 E406A mutant (Homo sapiens, UniProt O76083, E466A); assay: Enzymatic assay, kinetic parameters with cAMP and cGMP as substrates; type: biochemical
T1 construct: The coding region for residues 181-506 of PDE9A2 was amplified by PCR; inferred from vector pET15b and Ni-NTA purification) (N); made in house; host or cells: E. coli BL21 (Codonplus)
T1 sequence (O76083 241-566 E466A): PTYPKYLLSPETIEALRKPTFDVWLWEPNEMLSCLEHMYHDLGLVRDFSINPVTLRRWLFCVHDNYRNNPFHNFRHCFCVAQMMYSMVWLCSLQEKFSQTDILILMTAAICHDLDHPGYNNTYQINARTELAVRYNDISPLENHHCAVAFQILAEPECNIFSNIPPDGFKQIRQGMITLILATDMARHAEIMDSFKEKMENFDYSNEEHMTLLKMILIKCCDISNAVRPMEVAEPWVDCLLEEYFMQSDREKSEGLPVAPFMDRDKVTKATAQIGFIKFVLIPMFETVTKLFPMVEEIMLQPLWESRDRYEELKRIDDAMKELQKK
Description: (§1) Each measurement was repeated two times. The reaction was carried out at room temperature for 15 min and then terminated by the addition of 0.2 M ZnSO4 and 0.2 M Ba(OH)2. […] Vmax and KM values were calculated by nonlinear regression on the curve of velocity versus substrate concentration and also by Eadie-Hofstee plot. […] The IC50 values were calculated by nonlinear regression.

[2] = target: T2, wild type PDE9A2 catalytic domain (Homo sapiens, UniProt O76083); assay: as above; type: biochemical; conditions: substrate
T2 construct: The coding region for residues 181-506 of PDE9A2 was amplified by PCR; inferred from vector pET15b and Ni-NTA purification) (N); made in house; host or cells: E. coli BL21 (Codonplus)
T2 sequence (O76083 241-566): as the sequence (O76083 241-566 E466A) above, with A226E counted along it
Description: as §1

[3] = target: T3, PDE9A2 Q453E mutant (PDE9Q453E) (Homo sapiens, UniProt O76083, Q513E); assay: as above; type: biochemical
T3 construct: The catalytic domain of the PDE9Q453E mutant (10–15 mg/mL, amino acids 181–506); made in house; host or cells: E. coli BL21 (Codonplus)
Description: as §1

PDE5A Q817A mutant = conditions: PDE5A Q817A versus wild type; cited from earlier work
[4] = target: T3, PDE9A2 Q453E mutant (PDE9Q453E); assay: PDE9A2 enzymatic assay, IC50 of inhibitors (3H-cGMP substrate); type: biochemical
Description: as §1

PDE9A2 E406A mutant [5] = target: T1, PDE9A2 E406A mutant; assay: as above; type: biochemical
Description: as §1

[6] = target: T2, wild type PDE9A2 catalytic domain; assay: as above; type: biochemical
Description: as §1

[7] = target: the molecule itself; assay: crystal structure; PDE9Q453E catalytic domain (10-15 mg/mL) co-crystallised with 2 mM IBMX, hanging drop, 2.0 M Na formate, 0.1 M HEPES pH 7.5, 5% xylitol, 4°C; (S)-BAY73-6691 complex by soaking; two molecules in the asymmetric unit
[8] = E406A compared with wild type enzyme

Molecule: Nc1nc2c(ncn2[C@@H]2O[C@@H]3COP(=O)(O)O[C@H]3[C@H]2O)c(=O)[nH]1 [cGMP]
- fold reduction of apparent affinity, E406A versus wild type (PDE9A2 E406A mutant [1]; [8]): 2 fold
- fold reduction of catalytic activity, E406A versus wild type (PDE9A2 E406A mutant [1]; [8]): 2 fold
- Km (PDE9A2 E406A mutant [1]; E406A, substrate): 0.311 ± 0.04 µM
- Vmax (PDE9A2 E406A mutant [1]; E406A, substrate): 0.129 ± 0.004 µmol/mg/min
- kcat (PDE9A2 E406A mutant [1]; E406A, substrate): 0.08±0.00 S^−1
- Km [2]: 0.113 ± 0.013 µM
- Vmax [2]: 0.285 ± 0.008 µmol/mg/min
- kcat [2]: 0.18±0.00 S^−1
- fold loss of enzymatic efficacy kcat/KM, Q453E versus wild type ([3]; Q453E compared with wild type enzyme): about 50 fold
- Km ([3]; Q453E, substrate): 2.8 ± 0.18 µM
- Vmax ([3]; Q453E, substrate): 0.139 ± 0.003 µmol/mg/min
- kcat ([3]; Q453E, substrate): 0.09±0.00 S^−1
- fold reduction of cGMP affinity by Q817A mutation (PDE5A Q817A mutant): about 60 fold

Molecule: C[C@@H](Cc1nc2c(cnn2-c2ccccc2Cl)c(=O)[nH]1)C(F)(F)F [(S)-BAY73-6691, 1-(2-chlorophenyl)-6-(3,3,3-trifluoro-2-methylpropyl)-1H-pyrazolo [3,4-d]pyrimidin-4(5H)-one]
- fold increase of IC50 (affinity decrease), Q453E mutant versus wild type ([4]; Q453E IC50 relative to wild type IC50): > 1800 fold and 1800 fold

Molecule: CCCOc1ccccc1-c1nc2nn[nH]c2c(=O)[nH]1 [Zaprinast]
- IC50 (PDE9A2 E406A mutant [5]; E406A mutant, 30 nM 3H-cGMP, read-out: IC50): 7.6 ± 1.1 µM
- IC50 ([6]; wild type enzyme, 30 nM 3H-cGMP, read-out: IC50): 15.9 ± 1.2 µM
- IC50 ([4]; Q453E mutant, 30 nM 3H-cGMP): 53.7 ± 1.2 µM

Molecule: CC(C)Cn1c(=O)n(C)c(=O)c2[nH]cnc21 [IBMX, 3-isobutyl-1-methylxanthine]
- IC50 (PDE9A2 E406A mutant [5]): 31.7 ± 1.1 µM
- IC50 [6]: 53.9 ± 1.1 µM

B1: catalytic domain of the PDE9A2 Q453E mutant (amino acids 181-506) (domain or fragment, human, UniProt O76083-2 181-506, looked up)
chain: PTYPKYLLSPETIEALRKPTFDVWLWEPNEMLSCLEHMYHDLGLVRDFSINPVTLRRWLFCVHDNYRNNPFHNFRHCFCVAQMMYSMVWLCSLQEKFSQTDILILMTAAICHDLDHPGYNNTYQINARTELAVRYNDISPLENHHCAVAFQILAEPECNIFSNIPPDGFKQIRQGMITLILATDMARHAEIMDSFKEKMENFDYSNEEHMTLLKMILIKCCDISNEVRPMEVAEPWVDCLLEEYFMQSDREKSEGLPVAPFMDRDKVTKATAEIGFIKFVLIPMFETVTKLFPMVEEIMLQPLWESRDRYEELKRIDDAMKELQKK
notes: phosphodiesterase 9A, isoform PDE9A2, human, catalytic domain, residues 181-506, GenBank BC009047; numbers count on: PDE9A2; also called PDE9Q453E; PDE9 Q453E mutant; source: E. coli BL21 (Codonplus), purified (Ni-NTA, Q-Sepharose, Sephacryl S300)
- binding result [7]: binds
